According to patent publication US20250043299A1, “POINT MUTATIONS THAT BOOST AROMATIC AMINO ACID PRODUCTION AND CO2 ASSIMILATION IN PLANTS” (Wisconsin Alumni Research Foundation, priority 2021, published 2025):
Like-named read-outs stand apart in the source and are kept apart here.

Assays:
Assay type in all cases: biochemical
[1] = target: T1, Arabidopsis thaliana DHS2 (SEQ ID NO:2) variant DHS2^A4 (sotaA4), G222S (Arabidopsis thaliana, UniProt Q00218, G222S); experiment: biochemical
T1 construct: without the predicted plastid transit peptide (amino acid residues; 49-525, 34-507, and 52-527, respectively); made in house; host or cells: E. coli
Description: (§1) To generate recombinant DHS proteins the pET28a vectors carrying the A. thaliana DHS1 (AtDHS1), AtDHS2, or AtDHS3 WT sequence without the predicted plastid transit peptide (amino acid residues; 49-525, 34-507, and 52-527, respectively) were expressed in E. coli Rosetta-2 cells and purified using Ni-affinity chromatography, exactly as was conducted previously (9). To generate DHS proteins with individual sota mutations via site-directed mutagenesis, these pET28a plasmid templates were diluted by 500-fold, mixed with 0.04 U/μL Phusion DNA polymerase (Thermo Scientific), 0.2 mM deoxynucleoside triphosphates (dNTPs), 1× Phusion reaction buffer (Thermo Scientific), and 0.5 μM forward and reverse mutagenesis primers (Table 10). The PCR reaction was run using the following protocol: 98° C. for 30 s followed by 20 cycles of 10 s at 98° C., 20 s at 70° C., 4.5 min at 72° C. with a final extension at 72° C. for 10 min. The PCR products were purified using a QIAquick Gel Extraction Kit (QIAGEN), treated with FastDigest DpnI (Thermo Scientific) to digest methylated plasmid template DNA for 20 min at 37° C., and transformed into E. coli cells. The mutagenized pET28a plasmids were sequenced to confirm that no errors were introduced during the mutagenesis process.
(§2) The DHS enzyme assays were conducted using the colorimetric method that we recently described (9). Briefly, the enzyme solution (7.7 μl) containing 50 mM Hepes (pH 7.4) was preincubated with an effector molecule(s) at room temperature for 15 min. For assays using recombinant protein and enzyme fractions isolated from plant leaves, 0.01 to 0.1 μg and approximately 50 μg of proteins were used, respectively. After adding 0.5 μl of 0.1 M dithiothreitol, the samples were further incubated at room temperature for 15 min. During these incubations, the substrate solution containing 50 mM Hepes (pH 7.4), 2 mM MnCl2, 4 mM E4P, and 4 mM PEP at final concentration was preheated at 37° C. The enzyme reaction was started by adding 6.8 μl of the substrate solution, then incubated at 37° C. for 30 min, and terminated by adding 30 μl of 0.6 M trichloroacetic acid. After a brief centrifugation, 5 μl of 200 mM NaIO4 (sodium meta-periodate) in 9 N H3PO4 was added to oxidize the enzymatic product and to incubate at 25° C. for 20 min. To stop the oxidation reaction, 20 μl of 0.75 M NaAsO2 (sodium arsenite), which was dissolved in 0.5 M Na2SO4 and 0.05 M H2SO4, was added and immediately mixed. After 5 min of incubation at room temperature, one-third of the sample solution was transferred to a new tube to be mixed with 50 μl of 40 mM thiobarbituric acid and incubated at 99° C. for 15 min in a thermal cycler. The mixture was added to 600 μl of cyclohexanone in eight-strip solvent-resistant plastic tubes, mixed vigorously, and centrifuged at 4500 g for 3 min to separate water- and cyclohexanone-based layers for the extraction off the developed pink chromophore. The absorbance of the pink supernatant was read at 549 nm with the microplate reader (Infinite 200 PRO, TECAN) to calculate DAHP production with the molar extinction coefficient at 549 nm (ε=549 nm) of 4.5×10^4 M^−1 cm^−1. Reaction mixtures with boiled enzymes were run in parallel and used as negative controls to estimate the background signal.

[2] = target: T2, Arabidopsis thaliana DHS2 (SEQ ID NO:2) variant DHS2^F1 (sotaF1), L136F (Arabidopsis thaliana, UniProt Q00218, L136F); experiment: DHS enzyme assay with effector, DHS2 sotaF1
T2 construct: without the predicted plastid transit peptide (amino acid residues; 49-525, 34-507, and 52-527, respectively); made in house; host or cells: E. coli
Description: as §1
(§3) The DHS enzyme assays were conducted using the colorimetric method that we recently described (9). Briefly, the enzyme solution (7.7 μl) containing 50 mM Hepes (pH 7.4) was preincubated with an effector molecule(s) at room temperature for 15 min. For assays using recombinant protein and enzyme fractions isolated from plant leaves, 0.01 to 0.1 μg and approximately 50 μg of proteins were used, respectively. After adding 0.5 μl of 0.1 M dithiothreitol, the samples were further incubated at room temperature for 15 min. […] The absorbance of the pink supernatant was read at 549 nm with the microplate reader (Infinite 200 PRO, TECAN) to calculate DAHP production with the molar extinction coefficient at 549 nm (ε=549 nm) of 4.5×10^4 M^−1 cm^−1. […]

[3] = target: Arabidopsis thaliana DHS3 (SEQ ID NO:3) variant DHS3^H1 (sotaH1), G114R (Arabidopsis thaliana, UniProt Q9SK84, G114R); experiment: DHS enzyme assay with effector, DHS3 sotaH1
Description: as §1, §3

DHS2^A4 = target: T3, DHS2^A4 (Arabidopsis thaliana, UniProt Q00218, G222S); settings: for IC50: read-out: IC50 of effector molecule on DHS2^A4
T3 construct: without the predicted plastid transit peptide (amino acid residues; 49-525, 34-507, and 52-527, respectively); made in house; host or cells: E. coli
Description: as §1, §2

DHS2^F1 = target: T4, DHS2^F1 (Arabidopsis thaliana, UniProt Q00218, L136F); experiment: DHS enzyme assay, recombinant DHS2^F1; settings: for IC50: read-out: IC50 of effector molecule on DHS2^F1
T4 construct: without the predicted plastid transit peptide (amino acid residues; 49-525, 34-507, and 52-527, respectively); made in house; host or cells: E. coli
Description: as §1, §2

DHS1^B4 = target: T5, DHS1^B4 (Arabidopsis thaliana, UniProt P29976, G244R); experiment: DHS enzyme assay, recombinant DHS1^B4; settings: recombinant enzyme; for IC50: read-out: IC50 of effector molecule on DHS1^B4
T5 construct: without the predicted plastid transit peptide (amino acid residues; 49-525, 34-507, and 52-527, respectively); made in house; host or cells: E. coli
Description: as §1, §2

[4] = target: T6, Arabidopsis thaliana DHS1 (SEQ ID NO:1) variant DHS1^B4 (sotaB4), G244R (Arabidopsis thaliana, UniProt P29976, G244R); experiment: DHS enzyme assay with effector, DHS1 sotaB4
T6 construct: without the predicted plastid transit peptide (amino acid residues; 49-525, 34-507, and 52-527, respectively); made in house; host or cells: E. coli
Description: as §1, §2

[5] = target: Arabidopsis thaliana DHS3 (SEQ ID NO:3) variant DHS3^G1 (sotaG1), A240T (Arabidopsis thaliana, UniProt Q9SK84, A240T); experiment: DHS enzyme assay with effector, DHS3 sotaG1
Description: as §1, §3

[6] = target: Arabidopsis thaliana DHS3 (AtDHS3), wild type (DHS3^WT), SEQ ID NO:3 (Arabidopsis thaliana, UniProt Q9SK84); experiment: DHS enzyme assay with effector, Arabidopsis DHS3 WT
Description: as §1, §3

DHS2^A11 = target: T7, DHS2^A11 (Arabidopsis thaliana, UniProt Q00218, A224T); experiment: DHS enzyme assay, recombinant DHS2^A11; settings: for IC50: read-out: IC50 of effector molecule on DHS2^A11
T7 construct: without the predicted plastid transit peptide (amino acid residues; 49-525, 34-507, and 52-527, respectively); made in house; host or cells: E. coli
Description: as §1, §2

[7] = target: T8, Arabidopsis thaliana DHS2 (SEQ ID NO:2) variant DHS2^A11 (sotaA11), A224T (Arabidopsis thaliana, UniProt Q00218, A224T); experiment: DHS enzyme assay with effector, DHS2 sotaA11
T8 construct: without the predicted plastid transit peptide (amino acid residues; 49-525, 34-507, and 52-527, respectively); made in house; host or cells: E. coli
Description: as §1, §3

[8] = DHS3^WT, 4 mM E4P, 4 mM PEP, pH 7.4, 37° C., read-out: IC50

T5 sequence (P29976 49-525 G244R): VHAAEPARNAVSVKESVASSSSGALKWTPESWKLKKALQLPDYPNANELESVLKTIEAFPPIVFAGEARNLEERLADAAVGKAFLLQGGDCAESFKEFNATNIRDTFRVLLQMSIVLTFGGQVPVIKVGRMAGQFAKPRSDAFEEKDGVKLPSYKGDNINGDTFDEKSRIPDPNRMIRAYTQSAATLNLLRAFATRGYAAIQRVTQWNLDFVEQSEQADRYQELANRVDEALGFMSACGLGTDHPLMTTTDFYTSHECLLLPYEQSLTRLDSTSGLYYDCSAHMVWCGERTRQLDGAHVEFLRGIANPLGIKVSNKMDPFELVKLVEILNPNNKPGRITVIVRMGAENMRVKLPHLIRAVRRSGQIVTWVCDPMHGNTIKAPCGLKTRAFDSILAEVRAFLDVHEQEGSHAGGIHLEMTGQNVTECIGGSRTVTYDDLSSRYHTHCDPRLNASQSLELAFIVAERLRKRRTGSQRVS
T6 sequence (P29976 49-525 G244R): as above
T8 sequence (Q00218 34-507 A224T): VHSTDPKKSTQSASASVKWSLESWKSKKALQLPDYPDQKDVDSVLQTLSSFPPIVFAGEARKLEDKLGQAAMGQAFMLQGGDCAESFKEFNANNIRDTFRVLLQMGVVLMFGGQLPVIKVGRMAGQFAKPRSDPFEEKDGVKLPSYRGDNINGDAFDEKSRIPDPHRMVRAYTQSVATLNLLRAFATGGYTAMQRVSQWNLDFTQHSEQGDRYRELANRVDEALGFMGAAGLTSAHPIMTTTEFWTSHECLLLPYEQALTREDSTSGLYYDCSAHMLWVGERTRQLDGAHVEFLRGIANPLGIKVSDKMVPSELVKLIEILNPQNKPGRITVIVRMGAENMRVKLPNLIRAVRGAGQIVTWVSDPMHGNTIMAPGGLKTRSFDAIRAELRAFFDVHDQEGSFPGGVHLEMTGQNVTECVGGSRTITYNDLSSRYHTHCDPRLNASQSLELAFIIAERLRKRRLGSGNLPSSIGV
T7 sequence (Q00218 34-507 A224T): as above
Sequence of Arabidopsis thaliana DHS3 (SEQ ID NO:3) variant DHS3^H1 (sotaH1), G114R (Q9SK84 entry or part of it G114R): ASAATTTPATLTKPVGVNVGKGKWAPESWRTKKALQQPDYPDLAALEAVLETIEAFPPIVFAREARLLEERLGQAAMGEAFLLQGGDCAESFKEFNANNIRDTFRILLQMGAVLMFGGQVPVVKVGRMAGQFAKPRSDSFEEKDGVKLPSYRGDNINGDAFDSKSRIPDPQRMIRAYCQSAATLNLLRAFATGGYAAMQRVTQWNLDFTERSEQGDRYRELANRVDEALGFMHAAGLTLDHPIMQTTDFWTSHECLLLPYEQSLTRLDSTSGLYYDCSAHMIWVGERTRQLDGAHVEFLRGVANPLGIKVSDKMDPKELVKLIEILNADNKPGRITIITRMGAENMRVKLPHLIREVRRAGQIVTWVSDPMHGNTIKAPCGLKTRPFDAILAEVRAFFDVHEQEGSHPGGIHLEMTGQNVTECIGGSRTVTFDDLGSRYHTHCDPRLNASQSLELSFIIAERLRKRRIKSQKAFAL
T2 sequence (Q00218 34-507 L136F): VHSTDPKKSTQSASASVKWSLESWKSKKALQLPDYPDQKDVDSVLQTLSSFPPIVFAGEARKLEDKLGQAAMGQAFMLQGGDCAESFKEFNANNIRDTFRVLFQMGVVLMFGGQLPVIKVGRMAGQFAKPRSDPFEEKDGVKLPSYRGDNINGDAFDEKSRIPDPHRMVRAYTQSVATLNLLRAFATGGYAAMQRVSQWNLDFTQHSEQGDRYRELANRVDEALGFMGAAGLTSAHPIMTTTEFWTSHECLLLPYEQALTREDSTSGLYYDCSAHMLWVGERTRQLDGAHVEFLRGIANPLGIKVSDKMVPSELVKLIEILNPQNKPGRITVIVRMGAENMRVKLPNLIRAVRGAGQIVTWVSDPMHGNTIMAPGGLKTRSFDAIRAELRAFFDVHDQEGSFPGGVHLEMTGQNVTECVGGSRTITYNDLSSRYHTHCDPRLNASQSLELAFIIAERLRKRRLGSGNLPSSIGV
T4 sequence (Q00218 34-507 L136F): as above
T1 sequence (Q00218 34-507 G222S): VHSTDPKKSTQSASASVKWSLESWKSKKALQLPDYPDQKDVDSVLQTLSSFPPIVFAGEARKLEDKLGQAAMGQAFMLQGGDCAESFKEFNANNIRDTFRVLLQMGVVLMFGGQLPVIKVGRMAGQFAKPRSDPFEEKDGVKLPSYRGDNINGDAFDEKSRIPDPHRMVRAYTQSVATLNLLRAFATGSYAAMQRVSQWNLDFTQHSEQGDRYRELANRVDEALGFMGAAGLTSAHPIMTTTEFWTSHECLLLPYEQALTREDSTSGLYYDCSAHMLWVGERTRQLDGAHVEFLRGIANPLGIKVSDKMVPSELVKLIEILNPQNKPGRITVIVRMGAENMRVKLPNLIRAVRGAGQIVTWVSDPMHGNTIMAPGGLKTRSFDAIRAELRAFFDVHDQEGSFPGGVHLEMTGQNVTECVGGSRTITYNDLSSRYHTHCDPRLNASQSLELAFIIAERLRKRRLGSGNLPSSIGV
T3 sequence (Q00218 34-507 G222S): as above
Sequence of Arabidopsis thaliana DHS3 (AtDHS3), wild type (DHS3^WT), SEQ ID NO:3 (Q9SK84 entry or part of it): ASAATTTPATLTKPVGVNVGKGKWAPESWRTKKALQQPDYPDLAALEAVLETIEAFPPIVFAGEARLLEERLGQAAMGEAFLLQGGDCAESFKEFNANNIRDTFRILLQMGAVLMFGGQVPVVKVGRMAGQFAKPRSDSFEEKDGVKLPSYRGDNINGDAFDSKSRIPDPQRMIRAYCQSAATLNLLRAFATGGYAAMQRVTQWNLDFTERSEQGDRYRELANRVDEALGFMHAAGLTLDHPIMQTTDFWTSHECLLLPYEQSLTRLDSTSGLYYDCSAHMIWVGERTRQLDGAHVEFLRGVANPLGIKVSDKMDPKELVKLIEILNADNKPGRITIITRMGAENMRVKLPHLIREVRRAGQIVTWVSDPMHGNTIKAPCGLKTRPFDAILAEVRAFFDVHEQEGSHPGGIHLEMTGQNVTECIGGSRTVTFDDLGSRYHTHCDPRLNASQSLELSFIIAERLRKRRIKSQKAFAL

In the case of `O=C(O)C(=O)Cc1c[nH]c2ccccc12` [IPA, indole-3-pyruvate], the IC50 [1] is reported as 73.4 µM, the IC50 [2] is reported as 74 µM and the IC50 [3] is reported as 108 µM. It also gave an IC50 (DHS2^A4; recombinant enzyme) of 73.4 µM, an IC50 (DHS2^F1; recombinant enzyme) of 74 µM and an IC50 (DHS1^B4) of 5000 µM. The IC50 [4] was 5000 µM, the IC50 [5] was 273 µM and the IC50 [6, 8] was 25.3 µM. The IC50 (DHS2^A11; recombinant enzyme) was 90.6 µM and the IC50 [7] was 90.6 µM.

`O=C(O)Cc1cc(O)ccc1O` [HGA, homogentisate] gave an IC50 [1] of 212 µM, an IC50 [2] of 788 µM and an IC50 [3] of 405 µM. It also gave an IC50 (DHS2^A4; recombinant enzyme) of 212 µM, an IC50 (DHS2^F1; recombinant enzyme) of 788 µM and an IC50 (DHS1^B4) of 2990 µM. The IC50 [4] was 2990 µM, the IC50 [5] was 375 µM and the IC50 [6] was 102 µM. The IC50 (DHS2^A11; recombinant enzyme) was 242 µM and the IC50 [7] was 242 µM.

With `O=C(O)C(=O)Cc1ccc(O)cc1` [HPP, 4-Hydroxyphenylpyruvate] the IC50 [1] was 143 µM, the IC50 [2] was 321 µM and the IC50 [3] was 903 µM. It also gave an IC50 (DHS2^A4; recombinant enzyme) of 143 µM, an IC50 (DHS2^F1; recombinant enzyme) of 321 µM and an IC50 (DHS1^B4) of 835 µM. For the same molecule, the IC50 [4] was 835 µM, the IC50 [5] was 915 µM and the IC50 [6, 8] was 516 µM. The IC50 (DHS2^A11; recombinant enzyme) was 58.6 µM and the IC50 [7] was 58.6 µM.

`N[C@@H](Cc1c[nH]c2ccccc12)C(=O)O` [Trp, tryptophan] was tested, and the “inhibition of DHS2^A4 activity” value (DHS2^A4; effector up to 1 mM) was “not inhibited”, the “IC50 of effector molecule on DHS2^A4” value (DHS2^A4; recombinant enzyme) was “Not inhibited” and the “inhibition of DHS2^F1 activity” value (DHS2^F1; effector up to 1 mM) was “not inhibited”. For the same molecule, the “IC50 of effector molecule on DHS2^F1” value (DHS2^F1; recombinant enzyme) was “Not inhibited”, the “IC50 of effector molecule on DHS1^B4” value (DHS1^B4) was “Not inhibited” and the “inhibition of DHS2^A11 activity” value (DHS2^A11; effector up to 1 mM) was “not inhibited”. For the same molecule, the “IC50 of effector molecule on DHS2^A11” value (DHS2^A11; recombinant enzyme) was “Not inhibited”.
